We go through 30 compounds from patent US20250387375A1, “SOFALCONE DERIVATIVES AND MEDICAL USE THEREOF” (KAOHSIUNG MEDICAL UNIVERSITY, priority 2024, published 2025).

Some results are limits rather than exact numbers.

Series [1] has as its system FeCl3-induced carotid artery thrombosis. As to the kind of experiment: Ferric chloride-induced carotid artery thrombosis in mice. Type of series: in vivo, BALB/c mice. To be noted: oral gavage. As for the experimental part: Mice were orally administered by gavage with sofalcone (SFC, once daily for 4 days), derivative 17, or aspirin (ASA) (single administration only). The mice are then treated with ferric chloride solution to induce carotid artery thrombosis, and an ultrasound imaging system was used to monitor the time required for the thrombus to block the carotid artery (occlusion time). Data are presented as mean±standard […] error of the mean (n≥6). Compared with the control group, *P<0.05, ***P<0.001. In this experiment, a ferric chloride-induced arterial injury was used to evaluate the antithrombotic effect of the to-be-tested compound. The to-be-tested compound was orally administered by gavage to BALB/c mice aged approximately 6-8 weeks. Then, the mice were anesthetized with isoflurane, the right carotid artery was exposed through surgery, and filter paper (2×4 mm^2) containing 8.5% ferric chloride was attached to the right carotid artery for 3 minutes. After removing the filter paper, remaining ferric chloride was wiped off with cotton balls soaked with physiological saline, and an ultrasonic imaging system (VEVO 2100 system, VisualSonics) equipped with a Doppler flow probe (MS400, 18-38 MHz) was used to monitor the blood flow of the right carotid artery. The occlusion time was determined when the blood flow completely stopped for at least 1 minute. If the occlusion time was longer than 30 minutes, it was considered the end point of the experiment.

The subject of series [2] is human platelet suspension (platelet aggregation caused by collagen). The experiment in a line: Platelet aggregation reaction test, collagen-induced. It counts as cell-based. As to conditions: read-out: Collagen IC 50. The protocol:
(§1) Blood samples were collected from healthy donors, and acid-citrate-dextrose (ACD) solution was used as an anticoagulant. The blood samples were centrifuged to obtain platelets, and residual plasma was removed by washing to prepare platelet suspension.
(§2) In the experimental method, a platelet aggregometer (Chrono-Log Co., Havertown, PA, USA) was used for tests. The compound to be tested was added to the platelet suspension and reacted for 3 minutes at 37° C. with stirring (1200 rpm). Then, platelet stimulator U46619 or collagen was added to initiate platelet aggregation, and the test time was 5 minutes. The principle of the platelet aggregation test was: when platelets were stimulated to induce aggregation reaction, the light transmission of the platelet suspension would increase; by calculating changes in light transmission of the platelet suspension before and after being stimulated, the percentage of platelet aggregation could be obtained.

The subject of series [3] is human platelet suspension (platelet aggregation caused by TxA2 agonist U46619). The experiment in a line: Platelet aggregation reaction test, U46619-induced. Type of series: cell-based. As for the experimental part:
as §1, §2

Series [4] relates to normal hemostatic function (tail bleeding). The experiment in a line: Mouse bleeding test (tail bleeding time). It counts as in vivo, BALB/c mice. As to conditions: mouse, in vivo, po. The protocol: Mice were orally administered by gavage with sofalcone (SFC, once daily for 4 days), derivative 17, or aspirin (ASA) (single administration only). Then the mouse's tail was transected and the tail bleeding time was recorded. Data are presented as mean±standard error of the mean (n≥6). Compared with the control group, ***P<0.001. n.s.: No significant difference. In the present invention, the effect of the to-be-tested compound on normal hemostasis was evaluated by docking off the tail ends of the mice to cause bleeding. The to-be-tested compound was orally administered to BALB/c mice aged approximately 6-8 weeks by gavage. Then, the mice were anesthetized with isoflurane, and 2 mm of the distal end of their tails were excised. The tails of the mice were immersed in physiological saline at 37° C., and the bleeding time was observed. The determination of bleeding time was: the time required from the time the mouse tail was cut off until the bleeding completely stopped.

For series [5], the system named is TxB2 formation in human platelet suspensions. As to the kind of experiment: Measurement of platelet TxB2 level after arachidonic acid. Type of series: cell-based. As to conditions: AA 100 μM; human platelet suspension. The protocol:
(§3) FIGS. 6A and 6B show the effect of sofalcone and its derivatives on TxB2 and PGE2 productions induced by arachidonic acid (AA). […] After human platelet suspension was pretreated with dimethyl sulfoxide (DMSO) or sofalcone (SFC), sofalcone derivative 3, and sofalcone derivative 30, arachidonic acid (100 μM) was added to stimulate the productions of arachidonic acid metabolites TxB2 and PGE2. Data are presented as mean±standard error of the mean (n>5). Compared with the control group, *P<0.05, **P<0.01, ***P<0.001. ASA: Aspirin.
as §1
(§4) The compound to be tested was added to the platelet suspension and reacted for 3 minutes at 37° C. under stirring (1200 rpm), then arachidonic acid (AA) (100 μM) was added to react for 4 minutes, and finally EDTA (5 mM) was added to terminate the reaction. The above sample was centrifuged at 13,000 rpm for 1 minute at 4° C. and the supernatant was collected. The concentrations of TxB2 and PGE2 in the supernatant were measured respectively using enzyme immunoassay kits (TxB2 ELISA kit and PGE2 ELISA kit; Cayman Chemical Company).

In series [6] the test system is PGE2 formation in human platelet suspensions. As to the kind of experiment: Measurement of platelet PGE2 level after arachidonic acid. It counts as cell-based. As to conditions: AA 100 μM; human platelet suspension. As for the experimental part:
as §3, §1, §4

The target of a further series is T1, TxA2 receptor (Homo sapiens, UniProt P21731).
T1 construct: The blood samples were centrifuged to obtain platelets, and residual plasma was removed by washing to prepare platelet suspension; endogenous in cells; host or cells: washed human platelets from healthy donors
T1 sequence (P21731 1-343): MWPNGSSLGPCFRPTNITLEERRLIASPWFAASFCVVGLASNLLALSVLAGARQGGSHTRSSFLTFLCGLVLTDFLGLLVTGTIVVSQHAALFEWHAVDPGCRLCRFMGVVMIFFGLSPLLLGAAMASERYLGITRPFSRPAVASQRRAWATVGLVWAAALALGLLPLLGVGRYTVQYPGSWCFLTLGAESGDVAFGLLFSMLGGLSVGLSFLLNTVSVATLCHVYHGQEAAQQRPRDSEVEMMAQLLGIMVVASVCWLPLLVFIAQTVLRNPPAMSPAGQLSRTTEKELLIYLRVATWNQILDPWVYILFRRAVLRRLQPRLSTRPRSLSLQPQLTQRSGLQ
The experiment in a line: Competitive antagonism of U46619-induced platelet aggregation (U46619 concentration-response curves). Type of series: cell-based. As for the experimental part:
After human platelet suspension was pretreated with dimethyl sulfoxide (DMSO) or sofalcone (SFC) (FIG. 5A), sofalcone derivative 3 (FIG. 5B), and sofalcone derivative 30 (FIG. 5C), different concentrations of U46619 (0.1-10 μM) were added to stimulate platelet aggregation reaction. Data are presented as mean±standard error of the mean (n=5).
as §1, §2
After pretreating human platelet suspensions with dimethylsulfoxide (DMSO), sofalcone (20 μM and 50 μM), and sofalcone derivatives 3 or 30 (0.2 μM and 0.5 μM, respectively), different concentrations of U46619 (0.1-10 μM) were added to stimulate platelet aggregation.

[7] abbreviates: pretreatment 0.2 μM and 0.5 μM, U46619 0.1-10 μM.

Regarding `CC(C)=CCOc1ccc(/C=C/C(=O)c2ccc(OCC=C(C)C)cc2OCCCC(=O)[O-])cc1.[K+]` [Compound 17], the “carotid artery occlusion time” value in series [1] (single dose 10 mg/kg) and in series [1] (single dose 25 mg/kg) was “significantly prolonged” each time. Besides, the IC50 was 0.32 µM in series [2] and 40 nM in series [3]. The tail bleeding time entry in series [4] (10 mg/kg) and in series [4] (25 mg/kg) was “did not affect” each time.
Take `CC(C)=CCOc1ccc(/C=C/C(=O)c2ccc(OCC=C(C)C)cc2OCCCC(=O)O)cc1` [Compound 30]: the IC50 in series [2] amounted to 0.38 µM. Besides, the “formation of TxB2 induced by arachidonic acid” value in series [5] is recorded as “did not inhibit”. The “formation of PGE2 induced by arachidonic acid” value in series [6] is on record as “did not inhibit”. Further, the IC50 in series [3] was determined as 40 nM. For the same compound, on TxA2 receptor (concluded from parallel right shift of U46619 curves), the “mode of action at TxA2 receptor” value is reported as “competitively antagonize”. Further, at TxA2 receptor (setting [7]), the “U46619 concentration-platelet aggregation response curve” value is recorded as “shifted parallelly to the right” and the “maximum level of platelet aggregation” value was “not significantly affected”.
In the case of `O=C(O)COc1cc(OCc2ccccc2)ccc1C(=O)C=Cc1ccc(OCc2ccccc2)cc1` [Compound 88], the IC50 in series [2] amounted to 45.1 µM; in series [3], 9090 nM.
Take `O=C(O)COc1cc(OCc2ccc(F)cc2)ccc1C(=O)C=Cc1ccc(OCc2ccc(F)cc2)cc1` [Compound 89]: the values for the IC50 in series [2] and in series [3] were 33.9 µM and 3590 nM, respectively.
For the compound `CCCCOc1ccc(C=CC(=O)c2ccc(OCCCC)cc2OCC(=O)OC)cc1` [Compound 90], the IC50 was more than 100 µM in series [2] and more than 100000 nM in series [3].
For `CCCCCCOc1ccc(C=CC(=O)c2ccc(OCCCCCC)cc2OCC(=O)OC)cc1` [Compound 91] the same measures were more than 50 µM and more than 50000 nM.
For `CCCCCCCCOc1ccc(C=CC(=O)c2ccc(OCCCCCCCC)cc2OCC(=O)OC)cc1` [Compound 92] the same measures were more than 50 µM and more than 50000 nM.
For `CCCCCCCCCCOc1ccc(C=CC(=O)c2ccc(OCCCCCCCCCC)cc2OCC(=O)OC)cc1` [Compound 93] the same measures were more than 50 µM and more than 50000 nM.
Regarding `CCCCOc1ccc(C=CC(=O)c2ccc(OCCCC)cc2OCC(=O)O)cc1` [Compound 94], the values for the IC50 in series [2] and in series [3] were 63.2 µM and 40700 nM, respectively.
`CCCCCCOc1ccc(C=CC(=O)c2ccc(OCCCCCC)cc2OCC(=O)O)cc1` [Compound 95]: the IC50 in series [2] is 76.3 µM; in series [3], 36900 nM.
For `CCCCCCCCOc1ccc(C=CC(=O)c2ccc(OCCCCCCCC)cc2OCC(=O)O)cc1` [Compound 96] the same measures were more than 100 µM and more than 100000 nM.
The corresponding values for `CCCCCCCCCCOc1ccc(C=CC(=O)c2ccc(OCCCCCCCCCC)cc2OCC(=O)O)cc1` [Compound 97] are more than 50 µM and more than 50000 nM.
For `CC(C)=CCOc1ccc(C=CC(=O)c2ccccc2OCCCC(=O)O)cc1` [Compound 99] the same measures were 6.42 µM and 3330 nM.
With `CC(C)CCOc1ccc(CCC(=O)c2ccc(OCCC(C)C)cc2OCC(=O)O)cc1` [Compound 100], the IC50 in series [2] came to 66.8 µM; in series [3], 1730 nM.
As for `O=C(O)CCCCOc1ccccc1C(=O)C=Cc1ccccc1` [Compound 101], the IC50 in series [2] turned out to be 3.25 µM; in series [3] it was 3530 nM.
For `CC(C)=CCOc1ccc(C=CC(=O)c2ccccc2OCCCCC(=O)O)cc1` [Compound 102] the same measures were 3.14 µM and 2420 nM.
The corresponding values for `CC(C)=CCOc1ccc(C=CC(=O)c2ccccc2OCCCCCC(=O)O)cc1` [Compound 103] are 0.38 µM and 460 nM.
For `CCOC(=O)CCCCCCOc1ccccc1C(=O)C=Cc1ccccc1` [Compound 104] the same measures were 5.31 µM and 13500 nM.
On to `O=C(O)CCCCCCOc1ccccc1C(=O)C=Cc1ccccc1` [Compound 105], for which the IC50 in series [2] was determined as 9.08 µM; in series [3] it was 2920 nM.
For `CCOC(=O)CCCCCCCOc1ccccc1C(=O)C=Cc1ccccc1` [Compound 106] the same measures were 13.1 µM and 2840 nM.
As to `O=C(O)CCCCCCCOc1ccccc1C(=O)C=Cc1ccccc1` [Compound 107], the results for the IC50 in series [2] and in series [3] were 8.35 µM and 2490 nM, respectively.
For `CCOC(=O)COc1ccccc1C(=O)C=Cc1ccccc1` [Compound 108] the same measures were 3.67 µM and 15300 nM.
The corresponding values for `CCOC(=O)CCCOc1ccccc1C(=O)C=Cc1ccccc1` [Compound 109] are 4.89 µM and 9560 nM.
With `CCOC(=O)CCCCOc1ccccc1C(=O)C=Cc1ccccc1` [Compound 110], the IC50 in series [2] is 4.48 µM; in series [3], 2900 nM.
The corresponding values for `CCOC(=O)CCCCCOc1ccccc1C(=O)C=Cc1ccccc1` [Compound 111] are 0.22 µM and 160 nM.
The corresponding values for `COC(=O)CCCOc1ccccc1C(=O)C=Cc1ccccc1` [Compound 112] are 2.69 µM and 13400 nM.
For `COC(=O)CCCCCOc1ccccc1C(=O)C=Cc1ccccc1` [Compound 113] the same measures were 0.35 µM and 570 nM.
For `CCOC(=O)CCCCCOc1ccccc1C(=O)CCc1ccccc1` [Compound 115], the IC50 in series [2] was 5.87 µM; in series [3] it was 200 nM.
As to `O=C(O)CCCCCOc1ccccc1C(=O)CCc1ccccc1` [Compound 116], the IC50 worked out at 4.46 µM in series [2] and 200 nM in series [3].
The corresponding values for `CC1=C(C)C(=O)C(C(CCCCCC(=O)O)c2ccccc2)=C(C)C1=O` (stereo not drawn) [Seratrodast, reference compound] are 5.27 µM and 710 nM.
